# Measured values published in EP0539086B1, “Condensed pyrimidine derivatives and their use as angiotensine II antagonists” (AMERICAN HOME PRODUCTS CORPORATION, priority 1991, dated 1993).
# Test system: A II-infused rat
# Test: A II-infused rat model (antihypertensive action)
# Assay type: in vivo
# Details: 3 mg/kg id, average, four hours post-administration, anesthetized ganglion-blocked rats with A II infusion
# Experimental: In accordance with their ability to antagonize angiotensin II, the compounds of this invention show antihypertensive action in the following A II-infused rat model. Procedure: Rats are anesthetized with Dial-Urethane (0.60 mL/kg, ip) and the trachea cannulated with PR 240. Either one femoral artery and both femoral veins or the carotid artery and the corresponding jugular vein are cannulated with PE 50. If the jugular vein is cannulated, two cannulas are placed in the one vein. The initial portion of the duodenum (just distal to the stomach) is cannulated with PE 50 via a small midline incision. Arterial pressure and heart rate are measured from the arterial cannula. Ten to 15 min are allowed following surgery for stabilization of arterial pressure. Ganglion blockade is then produced by intravenous administration of mecamylamine at 3 mg/kg (1 mL/kg of a 3 mg/mL solution). Ganglion blockade causes a fall in arterial pressure of about 50 mmHg. Mecamylamine is given every 90 min throughout the remainder of the experiment. An A II infusion is then begun into the other venous cannula at 0.25 µg/kg min (at 9.6 µL/min). The A II infusion returns arterial pressure to or slightly above the control level. Once arterial pressure has stabilized with the A II infusion, baseline values for mean arterial pressure (MAP) and heart rate are taken. […]
smiles,measurement,value
"Cc1nc(C)c2c(n1)N(Cc1ccc(-c3ccccc3-c3nnn[nH]3)cc1)C(=O)C2 [Example 1, 2,4-Dimethyl-5,7-dihydro-7-[[2'-(1H-tetrazol-5-yl)[1,1-bi-phenyl]-4-yl]methyl]-6H-pyrrolo[2,3-d]pyrimidin-6-one]",lowered the A II dependent blood pressure,41%
